Data set [1] relates to uricase specific ADAs. Nature of the data set: Uricase specific ADA formation in uricase deficient mice. Type of data set: in vivo. Particulars: treated days 0, 7 and 14, pegsiticase alone challenge days 35 and 42. On the procedure:
(§1) A pharmacology study in mice that were genetically deficient in endogenous uricase was conducted. The study evaluated the efficacy of a dose regimen consisting of three immunizations with SEL 212 followed by doses of pegsiticase alone in preventing the formation of ADAs to pegsiticase. The treatment period consisted of the first 14 days of the study. In the study, mice were separated into three treatment groups. During the treatment period: • the first group, referred to as the Untreated Group, received no treatment; • the second group, referred to as the Pegsiticase Group, was treated with pegsiticase alone; and • the third group, referred to as the SVP Rapamycin+Pegsiticase Group, was treated with SVP Rapamycin co administered with pegsiticase.
(§2) The Pegsiticase Group and SVP Rapamycin+Pegsiticase Group were treated on days zero, seven and 14 of the treatment period. Each group was then treated with pegsiticase alone on days 35 and 42 of the study, or the challenge period. Uricase specific ADA levels were recorded to determine the formation of ADAs to pegsiticase. Uric acid levels were measured to determine effectiveness of SVP Rapamycin co administered with pegsiticase in lowering uric acid levels below 6 mg/dl, which is the treatment target for gout patients.

In data set [2] the test system is uric acid. Nature of the data set: Uric acid levels in uricase deficient mice. It is filed as in vivo. On the procedure:
as §1, §2

Data set [3] has as its system serum uric acid. Nature of the data set: Phase 1a clinical trial: serum uric acid. Type of data set: in vivo, human. On the procedure:
(§3) The Phase 1a clinical trial for SEL 212 was an ascending dose trial of pegsiticase alone in 22 subjects with elevated serum uric acid levels greater than 6 mg/dl who were separated into five cohorts. Each cohort received a single intravenous infusion of pegsiticase at the following dose levels of 0.1 mg/kg for Cohort #1, 0.2 mg/kg for Cohort #2, 0.4 mg/kg for Cohort #3, 0.8 mg/kg for Cohort #4 and 1.2 mg/kg for Cohort #5. Dosing began with the lowest dose and only after an entire cohort was safely dosed was the next cohort started. The subjects were monitored during a 30 day period post infusion with visits occurring on day 7, 14,21 and the end of trial visit on day 30. Blood and serum of each patient was evaluated for serum uric acid, ADAs (specifically anti-peg, anti-uricase and anti-pegsiticase) and safety parameters.
FIG. 4 depicts average serum uric acid levels of the Phase 1a clinical trial's five cohorts tested at different measurement intervals (Day 7, 14, 21 and 30) during the course of the 30 day period following the single intravenous infusion of pegsiticase at the outset of the trial.
The serum uric acid levels were measured at baseline and days seven, 14, 21 and 30 and uricase specific ADA levels at baseline and days seven, 14 and 30 following a single intravenous injection of pegsiticase. Uricase specific ADA levels at day 21 in the Phase 1a clinical trial were not measured. Based on the results from the Phase 1a clinical trial, it was observed that pegsiticase at a tolerated dose is capable of achieving and maintaining a reduction of serum uric acid below the target of 6 mg/dl for a 30 day period in the absence of inhibitory uricase specific ADAs.

Data set [4] relates to uricase specific ADAs. As to the kind of experiment: Phase 1a clinical trial: uricase specific ADAs. To be noted: single infusion; varying levels. Type of data set: in vivo, human. On the procedure: as §3
The serum uric acid levels were measured at baseline and days seven, 14, 21 and 30 and uricase specific ADA levels at baseline and days seven, 14 and 30 following a single intravenous injection of pegsiticase. Uricase specific ADA levels at day 21 in the Phase 1a clinical trial were not measured. […]

Data set [5] is described as follows: Phase 1a clinical trial: safety. It is filed as in vivo, human. To be noted: single intravenous infusion, five dose levels 0.1-1.2 mg/kg. How it is done:
as §3

In data set [6] the test system is serum uric acid. Nature of the data set: Phase 1b clinical trial: serum uric acid. Type of data set: in vivo, human. On the procedure: (§4) The Phase 1b clinical trial enrolled 63 patients with serum uric acid levels greater than 6 mg/dl separated into 11 cohorts. A single intravenous infusion of SVP Rapamycin alone at the following ascending dose levels was administered to four cohorts in ascending order. Each cohort consisted of seven patients and were designated as follows: Cohort #1 (0.03 mg/kg), Cohort #3 (0.1 mg/kg), Cohort #5 (0.3 mg/kg) and Cohort #7 (0.5 mg/kg) collectively the SVP Rapamycin Cohorts. After a cohort of the SVP-Rapamycin alone had successfully and safely been dosed the corresponding dose level of SVP Rapamycin was combined with a fixed dose of pegsiticase (0.4 mg/kg). The combination was co-administered sequentially as a single intravenous infusion, with the SVP Rapamycin infusion preceding the pegsiticase infusion. […] The subjects were monitored during a 30 day period post infusion with visits occurring on day 7, 14,21 and the end of trial visit on day 30. Blood and serum of each patient was evaluated for serum uric acid, ADAs (specifically anti-PEG, anti-uricase and anti-pegsiticase) and safety parameters. […]

In data set [7] the test system is uricase specific ADAs. Nature of the data set: Phase 1b clinical trial: uricase specific ADAs. To be noted: pegsiticase alone 0.4 mg/kg, Cohort #3 Phase 1a and Cohort #9 Phase 1b; resulting in return to baseline serum uric acid. Type of data set: in vivo, human. How it is done:
as §4
In the Phase 1a clinical trial, uricase specific ADA levels at day 21 was not measured. […] As a result, for the Phase 1b clinical trial, uricase specific ADA levels at day 21 were monitored.

The nature of data set [8]: Phase 1a and Phase 1b clinical trials: safety and tolerability. Type of data set: in vivo, human. To be noted: 85 subjects dosed in Phase 1a and Phase 1b. How it is done:
as §3
The Phase 1b clinical trial enrolled 63 patients with serum uric acid levels greater than 6 mg/dl separated into 11 cohorts. A single intravenous infusion of SVP Rapamycin alone at the following ascending dose levels was administered to four cohorts in ascending order. […] The subjects were monitored during a 30 day period post infusion with visits occurring on day 7, 14,21 and the end of trial visit on day 30. Blood and serum of each patient was evaluated for serum uric acid, ADAs (specifically anti-PEG, anti-uricase and anti-pegsiticase) and safety parameters. […]

A short description of data set [9]: Gout flare in first month, pegsiticase alone (Phase 1, Table 1). It is filed as in vivo, human. How it is done: as §3
When pegsiticase was administered alone in the Phase 1 described in Example 2, 57% (4 out of 7 patients) of those with a history of gout had signs of gout flare in the first month after receiving the study drug (Table 1). […] This subject was in the cohort that received only the rapamycin-comprising nanocarrier (without uricase). […] The flare was, therefore, unrelated to a change in serum uric acid. […] This patient's serum uric acid level dropped from 8.8 mg/dL to 0.1 mg/dL within 90 minutes following drug administration. So, although this subject had only been diagnosed with asymptomatic hyperuricemia before the study, a flare did seem to coincide with a drop in serum uric acid.

The conditions of data set [10]: cited from earlier work; for patients with gout flares requiring treatment in a month: colchicine prophylaxis.
In a further data set the test system is serum uric acid (SUA). To be noted: cited from earlier work.
The subject of data set [11] is uric acid. To be noted: cited from earlier work; for mean uric acid levels at four weeks: monthly dosing.
For a further data set, the system named is ADAs. To be noted: all KRYSTEXXA-treated subjects; cited from earlier work.
The conditions of data set [12]: cited from earlier work; for flares per patient over the first 3 months: Phase 3; for Flares per patient month: Phase 3 trials.
The conditions of data set [13]: cited from earlier work; for subjects requiring treatment for at least one gout flare: first 8 weeks, with gout flare prophylaxis.

Several values for one entry are separate records, joined by “and”; a condition that tells them apart may be missing. Equal entries are not always repeated. Where two headings read alike, the source gives them in different places.

As for “Recombinant Pegylated Candida Urate Oxidase [pegsiticase]”, the “uricase specific ADA formation” value with uricase specific ADAs [1] was “developed uricase specific ADAs”; in the data set on uricase specific ADAs [7], “uricase specific ADA formation at day 14”. Further, the uric acid levels result in the data set with uric acid [2] (after the first dose in the treatment period) is “below 6 mg/dl”; in the data set on uric acid [2] (subsequent doses in the treatment period and challenge period) it was above 6 mg/dL. In addition, the “time average serum uric acid levels sustained below 6 mg/dl” value in the data set with serum uric acid [3] (each cohort, depending on the dose level) was 14 to 30 days. In addition, the “time within which serum uric acid levels dropped significantly” value with serum uric acid [3] (single intravenous infusion, all 22 subjects) is on record as “approximately 10 hours”. The “time after dosing by which serum uric acid levels rebounded” value in the data set with serum uric acid [3] (single intravenous infusion, majority of patients) is 14 to 21 days. Besides, the “uricase specific ADAs” value with uricase specific ADAs [4] is reported as “induced uricase specific ADAs in all subjects”. Also, the serious adverse events entry in data set [5] is on record as “no serious adverse events”. Moreover, the tolerability entry in data set [5] and in data set [8] was “well tolerated” each time. The “subjects returned to baseline serum uric acid levels by day 30” value in the data set on serum uric acid [6] (Cohort #9: pegsiticase alone 0.4 mg/kg) was “four of the five”. Also, the “serum uric acid levels” value with serum uric acid [6] (pegsiticase alone 0.4 mg/kg, Cohort #3 Phase 1a and Cohort #9 Phase 1b, initial control, enzyme activity lost past day 14) was “below 6 mg/dL”. The “Flare in 1st month” value is “no” in [9] (individual subject with history of gout, SEL-037 0.8 mg/kg); “no and yes (2×) and yes (positive for” in [9] (individual subjects with history of gout, SEL-037 0.1 mg/kg, 0.1 mg/kg); “no and yes (mild gout, right” in data set [9] (individual subjects with history of gout, SEL-037 0.2 mg/kg, 0.2 mg/kg). In data set [9] (pegsiticase alone, Phase 1, 4 out of 7 patients), the “subjects with a history of gout with signs of gout flare in the first month” value is 57%.
For the compound `O=C(O)CSc1nnc(Br)n1-c1ccc(C2CC2)c2ccccc12` [Lesinurad, lesinurad], the “patients with gout flares requiring treatment in a month” value in data set [10] (200 mg daily) is reported as 10 out of 46; in data set [10] (400 mg daily), 13 out of 42; in data set [10] (600 mg daily), 15 out of 48. Also, the entries for the “Flares per patient month” value in data set [10] (200 mg/day), in data set [10] (400 mg/day) and in [10] (600 mg/day) were 0.22 flares per patient month, 0.31 flares per patient month and 0.31 flares per patient month, respectively. The “Time of efficacy (area under curve of mean sUA levels over time)” value with serum uric acid (SUA) (Lesinurad 200 mg/day) is recorded as 158.5; in the data set on serum uric acid (SUA) (Lesinurad 400 mg/day), 165.8; with serum uric acid (SUA) (Lesinurad 600 mg/day), 167.5.
As to Pegloticase, the “non-responders, share of subjects” value in the data set with uric acid [11] (monthly dosing cohorts) is 65%. For the same compound, in the data set on uric acid [11] (monthly dosing cohorts), the “subjects classified as responders (uric acid below 6 mg/dl for 80% of the time at months three and six)” value is listed as 35%. In addition, the “mean uric acid levels at four weeks” value is “above 6 mg/dl” in the data set on uric acid [11] (non-responders) and “above 4 mg/dl” in the data set on uric acid [11] (responders). The “treated subjects that developed ADAs” value in the data set with ADAs is on record as 89%. Further, the “flares per patient over the first 3 months” value is 2.3 in data set [12] (biweekly pegloticase, 85 patients) and 2.7 in data set [12] (monthly pegloticase, 84 patients). For the same compound, the “Flares per patient month” value in data set [12] (pegloticase biweekly) is listed as 0.77 flares per patient month; in data set [12] (pegloticase monthly) it was 0.90 flares per patient month; in data set [12] (pegloticase monthly, listed as pegloticase), 0.9 flares per patient month. The “study subjects reporting one or more flares” value in [12] (phase 2 trial, three-month study) is reported as 88%. For the same compound, in data set [12] (two phase 3 trials, despite gout flare prophylaxis (colchicine or NSAIDs)), the “patients with gout flares in the first 3 months” value is “about 80%”. Moreover, the “Time of efficacy (area under curve of mean sUA levels over time)” value in the data set on serum uric acid (SUA) (Pegloticase biweekly, Nonresponders) is listed as “Nonresponders-84.35”; with serum uric acid (SUA) (Pegloticase biweekly, Responders) it was “Responders-26.6”; in the data set with serum uric acid (SUA) (Pegloticase monthly, Nonresponders), “Nonresponders-99.75”; in the data set with serum uric acid (SUA) (Pegloticase monthly, Responders) it was “Responders-53.55”.
`Cc1nc(-c2ccc(OCC(C)C)c(C#N)c2)sc1C(=O)O` [Febuxostat, febuxostat]: the “Flares per patient month” value in [13] (80 mg/day) is recorded as 0.77 flares per patient month; in data set [13] (80 mg/day, listed as febuxostat) it was “at least 0.22 flares per patient month”; in [13] (120 mg/day), 0.36 flares per patient month; in data set [13] (120 mg/day, listed as febuxostat), at least 0.36 flares per patient month. The “subjects requiring treatment for at least one gout flare” value in data set [13] (80 mg/day) is 55 out of 255; in data set [13] (120 mg/day), 90 out of 250.

The values above are taken from patent US20250057756A1, “FORMULATIONS AND DOSES OF PEGYLATED URICASE” (Cartesian Therapeutics, Inc., priority 2016, published 2025).
